In publication PMC11842588, “A first-in-class selective inhibitor of ERK1/2 and ERK5 overcomes drug resistance with a single-molecule strategy” (Signal Transduction and Targeted Therapy, 2025):

Key:
Experiment in all cases: Kinase profiling
Type in all cases: biochemical
STK32C(h) = molecular target: T1, STK32C(h) (Homo sapiens, UniProt Q86UX6)
T1 construct: purchased Eurofins Cerep SA (KinaseProfiler)
Protocol: (§1) 380 kinases inhibitory activities of SKLB-D18 were conducted by Eurofins Cerep SA. The result was illustrated by kinase tree (http://www.kinhub.org/kinmap/).

GCN2(h) = molecular target: T2, GCN2(h) (Homo sapiens, UniProt Q9P2K8)
T2 construct: purchased Eurofins Cerep SA (KinaseProfiler)
Protocol: as §1

Wee1B(h) = molecular target: T3, Wee1B(h) (Homo sapiens, UniProt P0C1S8)
T3 construct: purchased Eurofins Cerep SA (KinaseProfiler)
Protocol: as §1

RIPK2(h) = molecular target: T4, RIPK2(h) (Homo sapiens, UniProt O43353)
T4 construct: purchased Eurofins Cerep SA (KinaseProfiler)
Protocol: as §1

TBK1(h) = molecular target: T5, TBK1(h) (Homo sapiens, UniProt Q9UHD2)
T5 construct: purchased Eurofins Cerep SA (KinaseProfiler)
Protocol: as §1

NEK6(h) = molecular target: T6, NEK6(h) (Homo sapiens, UniProt Q9HC98)
T6 construct: purchased Eurofins Cerep SA (KinaseProfiler)
Protocol: as §1

CK1δ(h) = molecular target: T7, CK1δ(h) (Homo sapiens, UniProt P48730)
T7 construct: purchased Eurofins Cerep SA (KinaseProfiler)
Protocol: as §1

PEK(h) = molecular target: T8, PEK(h) (Homo sapiens, UniProt Q9NZJ5)
T8 construct: purchased Eurofins Cerep SA (KinaseProfiler)
Protocol: as §1

CaMKIIβ(h) = molecular target: T9, CaMKIIβ(h) (Homo sapiens, UniProt Q13554)
T9 construct: purchased Eurofins Cerep SA (KinaseProfiler)
Protocol: as §1

cKit(h) = molecular target: T10, cKit(h) (Homo sapiens, UniProt P10721)
T10 construct: purchased Eurofins Cerep SA (KinaseProfiler)
Protocol: as §1

MARK1(h) = molecular target: T11, MARK1(h) (Homo sapiens, UniProt Q9P0L2)
T11 construct: purchased Eurofins Cerep SA (KinaseProfiler)
Protocol: as §1

CDK14/cyclinY(h) = molecular target: T12, CDK14/cyclinY(h) (Homo sapiens, UniProt O94921)
T12 construct: purchased Eurofins Cerep SA (KinaseProfiler)
Protocol: as §1

JAK2(h) = molecular target: T13, JAK2(h) (Homo sapiens, UniProt O60674)
T13 construct: purchased Eurofins Cerep SA (KinaseProfiler)
Protocol: as §1

CK2(h) = molecular target: T14, CK2(h) (Homo sapiens, UniProt P68400)
T14 construct: purchased Eurofins Cerep SA (KinaseProfiler)
Protocol: as §1

PAK1(h) = molecular target: T15, PAK1(h) (Homo sapiens, UniProt Q13153)
T15 construct: purchased Eurofins Cerep SA (KinaseProfiler)
Protocol: as §1

cSRC(h) = molecular target: T16, cSRC(h) (Homo sapiens, UniProt P12931)
T16 construct: purchased Eurofins Cerep SA (KinaseProfiler)
Protocol: as §1

CDK16/cyclinY(h) = molecular target: T17, CDK16/cyclinY(h) (Homo sapiens, UniProt Q00536)
T17 construct: purchased Eurofins Cerep SA (KinaseProfiler)
Protocol: as §1

FGFR4(h) = molecular target: T18, FGFR4(h) (Homo sapiens, UniProt P22455)
T18 construct: purchased Eurofins Cerep SA (KinaseProfiler)
Protocol: as §1

PKCβI(h) = molecular target: T19, PKCβI(h) (Homo sapiens, UniProt P05771)
T19 construct: purchased Eurofins Cerep SA (KinaseProfiler)
Protocol: as §1

PhKγ2(h) = molecular target: T20, PhKγ2(h) (Homo sapiens, UniProt P15735)
T20 construct: purchased Eurofins Cerep SA (KinaseProfiler)
Protocol: as §1

Rsk3(h) = molecular target: T21, Rsk3(h) (Homo sapiens, UniProt Q15349)
T21 construct: purchased Eurofins Cerep SA (KinaseProfiler)
Protocol: as §1

Flt4(h) = molecular target: T22, Flt4(h) (Homo sapiens, UniProt P35916)
T22 construct: purchased Eurofins Cerep SA (KinaseProfiler)
Protocol: as §1

p70S6K(h) = molecular target: T23, p70S6K(h) (Homo sapiens, UniProt P23443)
T23 construct: purchased Eurofins Cerep SA (KinaseProfiler)
Protocol: as §1

TAO2(h) = molecular target: T24, TAO2(h) (Homo sapiens, UniProt Q9UL54)
T24 construct: purchased Eurofins Cerep SA (KinaseProfiler)
Protocol: as §1

WNK1(h) = molecular target: T25, WNK1(h) (Homo sapiens, UniProt Q9H4A3)
T25 construct: purchased Eurofins Cerep SA (KinaseProfiler)
Protocol: as §1

Fms(h) = molecular target: T26, Fms(h) (Homo sapiens, UniProt P07333)
T26 construct: purchased Eurofins Cerep SA (KinaseProfiler)
Protocol: as §1

JNK2α2(h) = molecular target: T27, JNK2α2(h) (Homo sapiens, UniProt P45984)
T27 construct: purchased Eurofins Cerep SA (KinaseProfiler)
Protocol: as §1

CDK1/cyclinB(h) = molecular target: T28, CDK1/cyclinB(h) (Homo sapiens, UniProt P06493)
T28 construct: purchased Eurofins Cerep SA (KinaseProfiler)
Protocol: as §1

SAPK4(h) = molecular target: T29, SAPK4(h) (Homo sapiens, UniProt O15264)
T29 construct: purchased Eurofins Cerep SA (KinaseProfiler)
Protocol: as §1

NLK(h) = molecular target: T30, NLK(h) (Homo sapiens, UniProt Q9UBE8)
T30 construct: purchased Eurofins Cerep SA (KinaseProfiler)
Protocol: as §1

GRK6(h) = molecular target: T31, GRK6(h) (Homo sapiens, UniProt P43250)
T31 construct: purchased Eurofins Cerep SA (KinaseProfiler)
Protocol: as §1

PKG1β(h) = molecular target: T32, PKG1β(h) (Homo sapiens, UniProt Q13976)
T32 construct: purchased Eurofins Cerep SA (KinaseProfiler)
Protocol: as §1

Mnk1(h) = molecular target: T33, Mnk1(h) (Homo sapiens, UniProt Q9BUB5)
T33 construct: purchased Eurofins Cerep SA (KinaseProfiler)
Protocol: as §1

TTBK2(h) = molecular target: T34, TTBK2(h) (Homo sapiens, UniProt Q6IQ55)
T34 construct: purchased Eurofins Cerep SA (KinaseProfiler)
Protocol: as §1

RIPK1(h) = molecular target: T35, RIPK1(h) (Homo sapiens, UniProt Q13546)
T35 construct: purchased Eurofins Cerep SA (KinaseProfiler)
Protocol: as §1

B-Raf(h) = molecular target: T36, B-Raf(h) (Homo sapiens, UniProt P15056)
T36 construct: purchased Eurofins Cerep SA (KinaseProfiler)
Protocol: as §1

TTK(h) = molecular target: T37, TTK(h) (Homo sapiens, UniProt P33981)
T37 construct: purchased Eurofins Cerep SA (KinaseProfiler)
Protocol: as §1

PKCμ(h) = molecular target: T38, PKCμ(h) (Homo sapiens, UniProt Q15139)
T38 construct: purchased Eurofins Cerep SA (KinaseProfiler)
Protocol: as §1

LATS2(h) = molecular target: T39, LATS2(h) (Homo sapiens, UniProt Q9NRM7)
T39 construct: purchased Eurofins Cerep SA (KinaseProfiler)
Protocol: as §1

GRK3(h) = molecular target: T40, GRK3(h) (Homo sapiens, UniProt P35626)
T40 construct: purchased Eurofins Cerep SA (KinaseProfiler)
Protocol: as §1

MST4(h) = molecular target: T41, MST4(h) (Homo sapiens, UniProt Q9P289)
T41 construct: purchased Eurofins Cerep SA (KinaseProfiler)
Protocol: as §1

T24 sequence (Q9UL54 whole entry): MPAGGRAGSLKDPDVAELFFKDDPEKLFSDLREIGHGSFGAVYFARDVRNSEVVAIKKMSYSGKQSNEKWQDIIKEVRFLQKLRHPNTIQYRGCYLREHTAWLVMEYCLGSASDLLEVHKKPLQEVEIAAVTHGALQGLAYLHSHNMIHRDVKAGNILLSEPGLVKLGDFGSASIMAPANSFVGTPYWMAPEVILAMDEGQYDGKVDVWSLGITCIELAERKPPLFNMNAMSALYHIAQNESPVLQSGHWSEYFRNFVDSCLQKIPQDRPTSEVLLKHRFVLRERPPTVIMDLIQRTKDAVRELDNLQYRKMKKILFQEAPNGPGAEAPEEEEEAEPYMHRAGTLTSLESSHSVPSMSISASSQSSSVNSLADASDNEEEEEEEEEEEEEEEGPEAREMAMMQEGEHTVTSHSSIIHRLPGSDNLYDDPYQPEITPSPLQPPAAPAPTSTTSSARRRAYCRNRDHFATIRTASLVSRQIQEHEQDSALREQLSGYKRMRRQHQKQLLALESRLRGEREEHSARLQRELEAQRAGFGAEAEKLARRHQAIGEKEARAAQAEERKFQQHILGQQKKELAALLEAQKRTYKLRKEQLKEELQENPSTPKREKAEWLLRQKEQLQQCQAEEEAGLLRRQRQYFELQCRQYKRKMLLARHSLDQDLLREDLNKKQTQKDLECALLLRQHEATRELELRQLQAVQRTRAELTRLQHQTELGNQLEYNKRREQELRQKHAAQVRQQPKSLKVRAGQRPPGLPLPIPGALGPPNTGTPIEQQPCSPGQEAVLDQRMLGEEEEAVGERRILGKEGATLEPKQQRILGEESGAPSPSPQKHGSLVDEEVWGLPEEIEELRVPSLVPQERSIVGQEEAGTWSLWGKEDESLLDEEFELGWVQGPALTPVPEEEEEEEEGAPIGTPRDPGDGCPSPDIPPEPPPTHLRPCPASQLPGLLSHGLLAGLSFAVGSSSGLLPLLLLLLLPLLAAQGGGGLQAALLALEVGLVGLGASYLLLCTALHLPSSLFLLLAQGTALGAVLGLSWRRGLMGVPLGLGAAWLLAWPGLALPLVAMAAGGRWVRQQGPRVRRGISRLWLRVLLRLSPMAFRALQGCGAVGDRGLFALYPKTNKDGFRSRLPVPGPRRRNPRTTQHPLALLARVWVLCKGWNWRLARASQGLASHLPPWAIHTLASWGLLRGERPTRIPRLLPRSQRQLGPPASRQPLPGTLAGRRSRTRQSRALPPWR
T26 sequence (P07333 20-972): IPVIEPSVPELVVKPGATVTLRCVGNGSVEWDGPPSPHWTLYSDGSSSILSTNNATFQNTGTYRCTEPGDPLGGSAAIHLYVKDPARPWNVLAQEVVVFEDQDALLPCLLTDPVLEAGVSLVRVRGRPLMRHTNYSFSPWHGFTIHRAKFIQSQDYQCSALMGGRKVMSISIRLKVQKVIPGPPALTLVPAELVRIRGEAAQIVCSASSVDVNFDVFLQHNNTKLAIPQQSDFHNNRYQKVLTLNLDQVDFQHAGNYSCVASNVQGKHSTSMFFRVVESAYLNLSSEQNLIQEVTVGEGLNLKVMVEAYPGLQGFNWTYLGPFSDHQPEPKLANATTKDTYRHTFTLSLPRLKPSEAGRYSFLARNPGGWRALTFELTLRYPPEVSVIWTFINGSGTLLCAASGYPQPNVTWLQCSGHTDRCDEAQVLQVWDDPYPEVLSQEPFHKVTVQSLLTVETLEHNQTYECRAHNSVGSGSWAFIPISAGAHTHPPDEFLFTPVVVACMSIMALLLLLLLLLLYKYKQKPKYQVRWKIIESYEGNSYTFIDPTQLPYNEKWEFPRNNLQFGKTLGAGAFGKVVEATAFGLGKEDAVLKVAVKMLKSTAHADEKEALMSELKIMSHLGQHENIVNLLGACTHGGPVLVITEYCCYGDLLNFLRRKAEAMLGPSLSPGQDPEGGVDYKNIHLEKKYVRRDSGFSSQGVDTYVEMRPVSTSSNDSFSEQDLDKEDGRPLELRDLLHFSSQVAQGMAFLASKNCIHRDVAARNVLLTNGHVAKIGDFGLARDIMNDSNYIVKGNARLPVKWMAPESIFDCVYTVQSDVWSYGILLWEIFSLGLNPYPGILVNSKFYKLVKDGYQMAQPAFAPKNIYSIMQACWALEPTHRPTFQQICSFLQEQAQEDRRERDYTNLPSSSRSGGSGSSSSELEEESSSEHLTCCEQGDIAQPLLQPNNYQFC
T34 sequence (Q6IQ55 whole entry): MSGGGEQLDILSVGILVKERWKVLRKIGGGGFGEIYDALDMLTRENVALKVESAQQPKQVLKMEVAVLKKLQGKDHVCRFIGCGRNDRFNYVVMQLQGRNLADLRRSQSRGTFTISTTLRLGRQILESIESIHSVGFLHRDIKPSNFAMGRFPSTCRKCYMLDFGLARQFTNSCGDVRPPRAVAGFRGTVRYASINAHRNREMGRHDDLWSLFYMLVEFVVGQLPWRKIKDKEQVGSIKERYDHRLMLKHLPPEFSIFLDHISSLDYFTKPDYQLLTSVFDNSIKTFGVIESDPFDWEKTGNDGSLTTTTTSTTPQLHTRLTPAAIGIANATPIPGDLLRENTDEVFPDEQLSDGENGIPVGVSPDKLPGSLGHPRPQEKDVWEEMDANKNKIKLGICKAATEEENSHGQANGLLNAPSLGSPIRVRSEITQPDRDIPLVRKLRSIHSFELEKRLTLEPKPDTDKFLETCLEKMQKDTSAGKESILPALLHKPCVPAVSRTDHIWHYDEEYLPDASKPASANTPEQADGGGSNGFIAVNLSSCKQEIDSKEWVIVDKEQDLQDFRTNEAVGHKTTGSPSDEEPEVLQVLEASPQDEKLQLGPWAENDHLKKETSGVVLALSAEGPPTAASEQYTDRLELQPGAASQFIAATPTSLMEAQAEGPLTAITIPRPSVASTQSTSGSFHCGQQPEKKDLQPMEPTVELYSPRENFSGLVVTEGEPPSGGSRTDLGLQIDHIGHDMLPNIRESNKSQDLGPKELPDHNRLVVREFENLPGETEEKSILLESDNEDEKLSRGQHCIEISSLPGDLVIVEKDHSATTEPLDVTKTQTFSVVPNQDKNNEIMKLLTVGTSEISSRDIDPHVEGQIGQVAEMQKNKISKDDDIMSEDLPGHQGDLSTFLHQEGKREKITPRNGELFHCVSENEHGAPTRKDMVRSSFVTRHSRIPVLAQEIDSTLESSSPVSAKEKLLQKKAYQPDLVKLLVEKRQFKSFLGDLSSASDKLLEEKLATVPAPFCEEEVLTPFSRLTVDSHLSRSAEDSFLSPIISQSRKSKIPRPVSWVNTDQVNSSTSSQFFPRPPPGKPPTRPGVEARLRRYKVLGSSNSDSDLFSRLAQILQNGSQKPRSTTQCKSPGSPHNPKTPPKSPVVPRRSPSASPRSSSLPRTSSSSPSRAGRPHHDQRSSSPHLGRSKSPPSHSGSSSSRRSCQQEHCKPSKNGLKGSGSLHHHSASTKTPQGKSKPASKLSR
T7 sequence (P48730 whole entry): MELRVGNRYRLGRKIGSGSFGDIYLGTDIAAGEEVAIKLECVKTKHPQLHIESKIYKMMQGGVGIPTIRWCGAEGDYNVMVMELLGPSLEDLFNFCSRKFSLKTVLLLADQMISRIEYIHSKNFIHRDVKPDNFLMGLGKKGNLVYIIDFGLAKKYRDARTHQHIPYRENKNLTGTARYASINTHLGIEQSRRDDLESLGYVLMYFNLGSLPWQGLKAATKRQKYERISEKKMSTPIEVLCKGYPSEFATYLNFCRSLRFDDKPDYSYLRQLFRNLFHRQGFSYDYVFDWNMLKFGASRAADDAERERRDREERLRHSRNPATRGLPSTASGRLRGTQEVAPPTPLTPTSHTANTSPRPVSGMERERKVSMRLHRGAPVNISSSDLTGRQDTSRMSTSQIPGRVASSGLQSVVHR
T41 sequence (Q9P289 whole entry): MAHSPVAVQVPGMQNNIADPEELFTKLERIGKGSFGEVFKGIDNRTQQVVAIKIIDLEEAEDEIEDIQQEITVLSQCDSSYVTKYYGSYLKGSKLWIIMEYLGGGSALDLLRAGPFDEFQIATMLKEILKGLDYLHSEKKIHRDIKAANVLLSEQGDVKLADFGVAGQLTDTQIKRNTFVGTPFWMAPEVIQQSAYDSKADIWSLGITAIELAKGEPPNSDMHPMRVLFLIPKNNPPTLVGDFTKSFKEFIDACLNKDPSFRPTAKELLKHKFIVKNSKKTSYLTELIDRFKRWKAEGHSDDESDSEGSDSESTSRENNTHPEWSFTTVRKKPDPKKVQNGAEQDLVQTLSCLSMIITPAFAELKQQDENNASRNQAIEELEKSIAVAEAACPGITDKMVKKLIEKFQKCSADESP
T33 sequence (Q9BUB5 whole entry): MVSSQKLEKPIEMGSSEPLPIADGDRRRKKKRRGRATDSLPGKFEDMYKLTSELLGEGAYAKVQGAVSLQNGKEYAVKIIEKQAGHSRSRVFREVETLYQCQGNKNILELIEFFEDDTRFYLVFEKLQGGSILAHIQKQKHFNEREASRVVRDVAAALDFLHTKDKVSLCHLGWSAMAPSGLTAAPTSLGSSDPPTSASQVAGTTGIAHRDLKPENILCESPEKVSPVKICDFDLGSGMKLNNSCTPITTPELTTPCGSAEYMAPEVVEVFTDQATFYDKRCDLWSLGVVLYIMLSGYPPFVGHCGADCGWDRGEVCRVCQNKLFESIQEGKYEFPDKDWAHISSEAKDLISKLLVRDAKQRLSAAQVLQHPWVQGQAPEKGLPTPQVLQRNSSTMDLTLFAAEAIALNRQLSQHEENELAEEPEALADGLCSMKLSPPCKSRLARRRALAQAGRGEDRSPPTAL
T6 sequence (Q9HC98 whole entry): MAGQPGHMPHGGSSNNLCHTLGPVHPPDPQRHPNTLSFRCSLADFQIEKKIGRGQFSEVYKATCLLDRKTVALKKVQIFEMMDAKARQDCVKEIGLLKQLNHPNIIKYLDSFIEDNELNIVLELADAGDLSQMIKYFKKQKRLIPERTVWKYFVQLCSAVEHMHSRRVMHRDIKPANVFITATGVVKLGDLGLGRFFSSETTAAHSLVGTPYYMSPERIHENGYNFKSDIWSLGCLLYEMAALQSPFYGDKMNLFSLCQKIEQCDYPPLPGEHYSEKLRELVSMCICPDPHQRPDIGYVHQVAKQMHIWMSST

## CN(C)Cc1cccc(Nc2ncc(Cl)c(-c3csc(C(=O)NN4CCOCC4)c3)n2)c1 [SKLB-D18, 4-(5-chloro-2-((3-((dimethylamino)methyl)phenyl)amino)pyrimidin-4-yl)-N-morpholinothiophene-2-carboxamide]
STK32C(h)
  inhibition at 1 µM: 1%
GCN2(h)
  inhibition at 1 µM: 69%
Wee1B(h)
  inhibition at 1 µM: 49%
RIPK2(h)
  inhibition at 1 µM: 61%
TBK1(h)
  inhibition at 1 µM: 64%
NEK6(h)
  inhibition at 1 µM: 0%
CK1δ(h)
  inhibition at 1 µM: 16%
PEK(h)
  inhibition at 1 µM: 3%
CaMKIIβ(h)
  inhibition at 1 µM: 44%
cKit(h)
  inhibition at 1 µM: 69%
MARK1(h)
  inhibition at 1 µM: 64%
CDK14/cyclinY(h)
  inhibition at 1 µM: 58%
JAK2(h)
  inhibition at 1 µM: 67%
CK2(h)
  inhibition at 1 µM: 68%
PAK1(h)
  inhibition at 1 µM: 45%
cSRC(h)
  inhibition at 1 µM: 55%
CDK16/cyclinY(h)
  inhibition at 1 µM: 66%
FGFR4(h)
  inhibition at 1 µM: 8%
PKCβI(h)
  inhibition at 1 µM: 12%
PhKγ2(h)
  inhibition at 1 µM: 19%
Rsk3(h)
  inhibition at 1 µM: 66%
Flt4(h)
  inhibition at 1 µM: 63%
p70S6K(h)
  inhibition at 1 µM: 57%
TAO2(h)
  inhibition at 1 µM: 64%
WNK1(h)
  inhibition at 1 µM: 12%
Fms(h)
  inhibition at 1 µM: 34%
JNK2α2(h)
  inhibition at 1 µM: 48%
CDK1/cyclinB(h)
  inhibition at 1 µM: 44%
SAPK4(h)
  inhibition at 1 µM: 53%
NLK(h)
  inhibition at 1 µM: 26%
GRK6(h)
  inhibition at 1 µM: 2%
PKG1β(h)
  inhibition at 1 µM: 4%
Mnk1(h)
  inhibition at 1 µM: 62%
TTBK2(h)
  inhibition at 1 µM: 0%
RIPK1(h)
  inhibition at 1 µM: 9%
B-Raf(h)
  inhibition at 1 µM: 59%
TTK(h)
  inhibition at 1 µM: 34%
PKCμ(h)
  inhibition at 1 µM: 64%
LATS2(h)
  inhibition at 1 µM: 37%
GRK3(h)
  inhibition at 1 µM: 2%
MST4(h)
  inhibition at 1 µM: 15%
